GI50 and TGI data for 2 compounds are collected here from PubChem BioAssay (NCI).

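Growth conditions: 96-well plates. Treatment: test compound, 48 hours, 5 concentrations. Analysis: linear interpolation between bracketing concentrations; unreached endpoints set to highest concentration. At the GI50, growth is halved. TGI denotes the concentration required for complete inhibition of growth.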 Some results are limits rather than exact numbers.

Some test systems named below: DU-145 prostate; ACHN renal; NCI-H522 lung; COLO 205 colon; NCI-H23 lung; OVCAR-5 ovarian; SK-MEL-28 melanoma; HOP-92 NSCLC; OVCAR-3 ovarian; CAKI-1 renal.
Holding throughout (experiment): NCI-60 cell line screen, 48 h

Regarding `Cc1ccc(Cl)cc1Nc1nc(C(F)(F)F)ccc1C(=O)N/N=C/c1cccnc1`, the GI50 in the test with DU-145 prostate was 3.38 µM; in the test on ACHN renal, 3.63 µM; in the test on NCI-H522 lung, 6.64 µM; in the test with COLO 205 colon, 4.86 µM; in the test on NCI-H23 lung, 5.6 µM; in the test on OVCAR-5 ovarian it was 3.44 µM. Moreover, the GI50 in the test with SK-MEL-28 melanoma is 4.24 µM; with HOP-92 NSCLC, 1.55 µM; with OVCAR-3 ovarian, 2.45 µM; with CAKI-1 renal, 2.14 µM. Besides, the TGI with DU-145 prostate worked out at 9.73 µM; in the test with ACHN renal, 13.1 µM; with NCI-H522 lung, 22.5 µM; with COLO 205 colon it was 17.7 µM; with NCI-H23 lung, 20.3 µM; in the test on OVCAR-5 ovarian it was 17.1 µM. The TGI in the test on SK-MEL-28 melanoma is 15.8 µM; in the test on HOP-92 NSCLC, 7.37 µM; with OVCAR-3 ovarian, 14.3 µM; with CAKI-1 renal, 9.02 µM.

As to `O=C(O)/C=C/C(=O)N1Cc2cc3ccccc3nc2C1`, the TGI in the test with DU-145 prostate, in the test with ACHN renal, with NCI-H522 lung, in the test on COLO 205 colon, in the test with NCI-H23 lung and in the test on OVCAR-5 ovarian was above 100 µM in each case. Moreover, the TGI in the test on SK-MEL-28 melanoma, in the test with HOP-92 NSCLC, with OVCAR-3 ovarian and with CAKI-1 renal was above 100 µM each time.
